PMC3288109, “γ-Aminobutyric Acid Transporter 2 Mediates the Hepatic Uptake of Guanidinoacetate, the Creatine Biosynthetic Precursor, in Rats” (PLoS ONE, 2012)
Values belong to the molecule of their own block, whether it stands above or below them.

Assays:
[1] = system: T1, freshly isolated rat hepatocytes; experiment: cells; parameters: species or system primary rat hepatocytes; Inhibition of [14C]GAA (18 uM) uptake by freshly isolated rat hepatocytes, 37 C, scintillation counting; details: Hepatocyte, 0.05 h, [14C]GAA 18 uM, 3 min, 37 C, read-out: % of control remaining
T1 construct: Wistar primary hepatocytes, collagenase perfusion
Text: Rat hepatocytes were isolated by collagenase perfusion and Percoll isodensity centrifugation as described previously. The hepatocytes were resuspended in Tyrode buffer containing (in mM) 137 NaCl, 2.7 KCl, 1.05 MgCl2, 1.8 CaCl2, 12 NaHCO3, 0.4 NaH2PO4, and 5.6 D-glucose. Uptake of [^14C]GAA or [^14C]creatine by the freshly isolated hepatocytes was examined according to the methods described previously. In brief, after centrifugation and aspiration of the buffer, uptake was initiated by applying 100 µL Tyrode buffer containing [^14C]GAA or [^14C]creatine at 37°C in the presence or absence of inhibitors. Na^+-free Tyrode buffer was prepared by replacement of NaCl, NaH2PO4 and NaHCO3 with equimolar N-methyl-D-glucamine, KH2PO4, and KHCO3, respectively. Cl^−-free uptake buffer was prepared by replacement with equimolar gluconate. After a predetermined period, uptake was terminated by centrifugation of the solution. The cells were then solubilized in 1 N NaOH and subsequently neutralized with 1 N HCl. The cell-associated radioactivity and protein content were assayed by [compound left out] scintillation spectrometry and detergent compatible protein assay (a DC protein assay kit, Bio-Rad, Hercules, CA) with bovine serum albumin as a standard. […] In contrast, there was no time-dependent increase in [^14C]creatine uptake by hepatocytes (Figure 2A). […] The [^14C]GAA uptake took place in a concentration-dependent manner and consisted of a single saturable component (Figure 2B). […] In contrast, creatinine, betaine, guanidinosuccinic acid, L-arginine, L-alanine, and L-serine had much weaker effects. GABA, taurine, and creatine inhibited the [^14C]GAA uptake in a concentration-dependent manner with an IC50 value of 8.81±1.33 µM, 1.13±0.30 mM, and 1.42±0.53 mM, respectively (Figure 2C–E). […] Among the GAT subtypes, GAT2 is predominantly expressed in rat liver. […] [^14C]GAA uptake was reduced by 46.4% in GAT2-silenced hepatocytes corresponding to the reduction in GAT2 protein (Figure 2F).

[2] = target: T2, GAT2 (γ-aminobutyric acid transporter 2, SLC6A13) (Rattus norvegicus, UniProt P31646); experiment: cell-based; parameters: rat GAT2 open reading frame cRNA expressed in Xenopus laevis oocytes; species or system Xenopus laevis oocytes; Inhibition of [14C]GAA (45 uM) uptake by rat GAT2 cRNA-injected oocytes, 20 C, scintillation counting; details: Oocyte; [14C]GAA 45 uM, 1 h, 20 C; read-out: % of control / 100±7
T2 sequence (P31646 1-602): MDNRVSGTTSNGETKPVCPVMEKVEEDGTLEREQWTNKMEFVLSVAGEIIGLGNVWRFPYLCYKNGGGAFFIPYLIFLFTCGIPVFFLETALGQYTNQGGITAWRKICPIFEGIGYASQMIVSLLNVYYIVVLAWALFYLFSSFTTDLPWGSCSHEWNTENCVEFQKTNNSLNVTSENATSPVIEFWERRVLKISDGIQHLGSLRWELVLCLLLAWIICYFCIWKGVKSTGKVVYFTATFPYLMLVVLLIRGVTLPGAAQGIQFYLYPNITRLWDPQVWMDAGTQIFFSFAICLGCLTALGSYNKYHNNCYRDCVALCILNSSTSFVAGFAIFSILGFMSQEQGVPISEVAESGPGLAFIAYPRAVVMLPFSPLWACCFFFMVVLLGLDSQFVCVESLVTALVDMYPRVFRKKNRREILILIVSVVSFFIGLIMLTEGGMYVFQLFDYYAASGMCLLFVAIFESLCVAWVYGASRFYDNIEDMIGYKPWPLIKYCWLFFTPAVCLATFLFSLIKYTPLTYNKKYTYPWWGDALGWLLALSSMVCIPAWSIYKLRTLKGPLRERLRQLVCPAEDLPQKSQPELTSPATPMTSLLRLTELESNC
Description: Using T7 RNA polymerase, capped cRNA was transcribed from NotI-linearized pGEM-HEN containing an open reading frame of rat GAT2 cDNA. Defolliculated oocytes were injected with 23 nL water or the capped cRNA (30–50 ng) and incubated at 18°C in freshly prepared standard oocyte saline solution containing 100 mM NaCl, 2 mM KCl, 1.8 mM CaCl2, 1 mM MgCl2, and 5 mM HEPES, 25 µg/mL gentamycin, 2.5 mM pyruvate and 1% bovine serum albumin, pH 7.5. The standard oocyte saline solution used to incubate the oocytes was replaced with fresh solution daily. Experiments were performed after incubation for 4 to 6 days. For the uptake study by Xenopus laevis oocytes, oocytes were preincubated with 500 µL ND96 solution containing (in mM) 96 NaCl, 2 KCl, 1.8 CaCl2, 1 MgCl2, and 5 HEPES for 20 min at 20°C before the uptake experiment. The uptake experiment was initiated by replacing the ND96 solution with 200 µL of the same solution containing [^14C]GAA (45 µM) […] [^14C]creatine (45 µM). After incubation for a designated time at 20°C, the uptake was terminated by addition of ice-cold ND96 solution. […] The inhibitory effects of GAT substrates and inhibitors on the [^14C]GAA uptake were further examined (Figure 3B and Table 3).

[3] = target: T2, GAT2 (γ-aminobutyric acid transporter 2, SLC6A13); type: cell-based; details: xenopus oocytes
[4] = substrate: N=C(N)NCC(=O)O; experiment: cells, lysate or membranes; type: cell-based, Rattus norvegicus; details: Na+ and Cl-

Molecule: CN1CC(=O)NC1=N [Creatinine]
activity at 2000 µM [1]: 75.3 ± 8.9% | remaining activity at 5000 µM [2]: 147 ± 18%

Molecule: NCC(=O)O [Glycine]
activity at 2000 µM [1]: 54.4 ± 11.2%

Molecule: [H]/N=C(/N)NCC(=O)O [Guanidinoacetic acid]
activity at 2000 µM [1]: 24.1 ± 1.1%

Molecule: N=C(N)NCCS(=O)(=O)O [Guanidinoethansulfonic acid]
activity at 2000 µM [1]: 33 ± 4.4% | remaining activity at 5000 µM [2]: 11 ± 1.2%

Molecule: N=C(N)NCCC[C@H](N)C(=O)O [L-Arginine]
activity at 2000 µM [1]: 74.9 ± 11.1% | remaining activity at 5000 µM [2]: 137 ± 15%

Molecule: N[C@@H](CO)C(=O)O [L-Serine]
activity at 2000 µM [1]: 83.8 ± 6.4%

Molecule: O=C(O)C1CCCNC1 (stereo not drawn) [Nipecotic acid]
activity at 2000 µM [1]: 30.8 ± 1.2% | remaining activity at 5000 µM [2]: 11.9 ± 1.5%

Molecule: NCCS(=O)(=O)O [Taurine]
remaining activity at 5000 µM [2]: 16.6 ± 4.4%

Molecule: NCCC(=O)O [β-Alanine]
activity at 2000 µM [1]: 28.5 ± 5.5%

B1: GAT2 (γ-aminobutyric acid transporter 2, SLC6A13) (Rattus norvegicus) (protein)
chain: T2 sequence (P31646 1-602)
notes: rat GAT2 open reading frame cRNA expressed in Xenopus laevis oocytes
Km [4]: 78.9 µM

Second part, led by results:

remaining activity at 5000 µM [2]: 96.7 ± 7.4%
Molecule: C[N+](C)(C)CC(=O)O [Betaine]
activity at 2000 µM [1]: 64.4 ± 8.7%

[14C]creatine uptake by GAT2-expressing oocytes; also 57.3% of control [14C]GAA [3]: 28 fold over water-injected oocytes | remaining activity at 5000 µM [2]: 57.3 ± 8.3%
Molecule: CN(CC(=O)O)C(=N)N [Creatine]

remaining activity at 5000 µM [2]: 1.74 ± 0.44%
Molecule: NCCCC(=O)O [GABA]
activity at 2000 µM [1]: 17.1 ± 1.6%

remaining activity at 5000 µM [2]: 148 ± 11%
Molecule: NC(N)=N[C@@H](CC(=O)O)C(=O)O [Guanidinosuccinic acid]
activity at 2000 µM [1]: 71.2 ± 5.1%

remaining activity at 5000 µM [2]: 138 ± 18%
Molecule: C[C@H](N)C(=O)O [L-Alanine]
activity at 2000 µM [1]: 59.6 ± 7.8%

remaining activity at 5000 µM [2]: 0.81 ± 0.07%
Molecule: [H]/N=C(\N)NCCC(=O)O [β-Guanidinopropionic acid]
activity at 2000 µM [1]: 18.9 ± 0.9%

remaining activity at 5000 µM [2]: 2.35 ± 0.23%
Molecule: N=C(N)NCCCC(=O)O [γ-Guanidinobutyric acid]
